Tests used:
[1] = molecular target: T1, AHR (Homo sapiens, UniProt P35869); test: In vitro assay 1: AHR-luc transactivation assay, antagonism in human cell line (U87 glioblastoma cells prestimulated with kynurenic acid); type: cell-based
T1 construct: U87 glioblastoma cells (ATCC) endogenously expressing AHR; host or cells: U87 glioblastoma cells, stably transfected with DRE-firefly luciferase and renilla reporter constructs
T1 sequence (P35869 11-848): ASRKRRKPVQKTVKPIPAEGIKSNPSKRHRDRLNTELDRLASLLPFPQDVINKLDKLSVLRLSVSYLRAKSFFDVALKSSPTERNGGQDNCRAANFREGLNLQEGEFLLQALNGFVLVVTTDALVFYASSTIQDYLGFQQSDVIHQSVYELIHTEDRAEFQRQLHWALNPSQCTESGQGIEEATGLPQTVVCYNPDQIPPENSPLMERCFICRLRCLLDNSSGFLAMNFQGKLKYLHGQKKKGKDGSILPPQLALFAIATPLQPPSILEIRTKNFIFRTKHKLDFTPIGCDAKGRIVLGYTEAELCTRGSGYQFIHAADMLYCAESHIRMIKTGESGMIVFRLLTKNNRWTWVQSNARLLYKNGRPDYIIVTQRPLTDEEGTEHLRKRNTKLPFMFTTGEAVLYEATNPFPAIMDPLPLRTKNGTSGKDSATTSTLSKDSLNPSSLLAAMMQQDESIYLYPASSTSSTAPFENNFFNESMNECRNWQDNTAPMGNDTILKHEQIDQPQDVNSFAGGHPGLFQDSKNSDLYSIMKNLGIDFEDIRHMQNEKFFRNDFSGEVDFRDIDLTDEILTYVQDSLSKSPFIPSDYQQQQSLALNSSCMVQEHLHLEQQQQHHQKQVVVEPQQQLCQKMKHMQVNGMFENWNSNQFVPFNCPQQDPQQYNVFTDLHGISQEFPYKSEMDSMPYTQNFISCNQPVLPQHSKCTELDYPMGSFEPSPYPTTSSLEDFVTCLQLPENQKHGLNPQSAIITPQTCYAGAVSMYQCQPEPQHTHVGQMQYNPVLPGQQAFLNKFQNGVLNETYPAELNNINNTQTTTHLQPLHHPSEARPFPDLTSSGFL
Experimental: Transactivation Assay in Human Cell Line (In Vitro Assays 1 and 2)
Transactivation assays were carried out in U87 glioblastoma cells (ATCC) endogenously expressing AHR. In addition the cells were stably transfected with an AHR inducible firefly luciferase reporter gene construct that carried AHR-binding sites (DRE) in its promoter and a renilla reporter gene construct with constitutively active promoter. Kynurenic acid is an endogenous AHR activating ligand and was used to prestimulate test cells prior to testing the antagonistic properties of compounds.
In Vitro Assay 1: Antagonism in Human Cell Line
Cells in medium (tryptophan free RPMI, 1% FCS, 2 mM Glutamine) supplemented with 150 μM kynurenic acid were grown for 20 hours in absence (negative control) or presence of increasing concentrations of test compounds (typical dilutions: 72 pmol/L, 0.25 nmol/L, 0.89 nmol/L; 3.1 nmol/L, 11 nmol/L, 38 nmol/L, 130 nmol/L, 470 nmol/L, 1.6 μmol/L, 5.7 μmol/L and 20 μmol/L in duplicates). As positive inhibition control cells supplemented with 150 μM kynurenic acid were incubated in presence of 5 μM Staurosporin. Normalization was done by positive and negative controls.
Firefly luciferase and Renilla activity was determined by the DualGlo Luciferase Assay System (Promega, #2920). Renilla activity was used to assess toxic effects of compounds.

[2] = molecular target: T1, AHR; test: In vitro assay 3: AHR-regulated CYP1A1 expression in human cell line (U937, qPCR); type: cell-based; settings: human monocytic U937 cells, CYP1A1 expression induced with 200 μM KA, 6 hours, quantitative PCR; read-out: Assay 3: Hum CYP1A1 Antagonism IC50
Experimental: In Vitro Assay 3: AHR-Regulated CYP1A1 Expression in Human Cell Line
To assess the AHR inhibitory activity of the substances described in this application, the ability thereof to antagonise ligand-induced AHR gene regulation in a dose-dependent manner was quantified. For this purpose, quantitative PCR analysis was used to determine expression of the AHR-regulated gene CYP1A1 in a human monocytic U937 cell line upon stimulation with 200 μM KA in the presence and absence of AHR inhibitor. […] CYP1A1 expression was induced with 200 μM KA (positive control) in the presence or absence of the substances for 6 hours. Human U937 cells were typically incubated with eight different concentrations of the substances (1 nM, 3 nM, 10 nM, 30 nM, 100 nM, 300 nM, 1 μM and 3 μM) and analyzed in duplicate on the same microtitre plate. […] Unstimulated cells were used as the negative control. Taqman probes for human CYP1A1 (Hs01054797_g1) and human HPRT (Hs02800695_m1) were used to analyze fold expression of CYP1A1 of HPRT. Quantitation was performed on a Taqman SDS7900HT.

CC(C)(O)CNC(=O)c1cc(-c2ccc(C(F)(F)F)nc2)nn(-c2cccc(F)c2)c1=O [Example 10, 2-(3-Fluorophenyl)-N-(2-hydroxy-2-methylpropyl)-3-oxo-6-[6-(trifluoromethyl)pyridin-3-yl]-2,3-dihydropyridazine-4-carboxamide]
IC50 [1]: 73.2 nM
IC50 [2]: 110 nM

COc1ccc(-c2cc(C(=O)N[C@@H](C)CO)c(=O)n(-c3cccc(F)c3)n2)cn1 [Example 21, 2-(3-Fluorophenyl)-N-[(2S)-1-hydroxypropan-2-yl]-6-(6-methoxypyridin-3-yl)-3-oxo-2,3-dihydropyridazine-4-carboxamide]
IC50 [1]: 128 nM
IC50 [2]: 440 nM

C[C@@H](NC(=O)c1cc(-c2ccc(C(F)F)nc2)nn(-c2cccc(F)c2)c1=O)C(C)(C)O [Example 22, 6-[6-(Difluoromethyl)pyridin-3-yl]-2-(3-fluorophenyl)-N-[(2R)-3-hydroxy-3-methylbutan-2-yl]-3-oxo-2,3-dihydropyridazine-4-carboxamide]
IC50 [1]: 62.6 nM
IC50 [2]: 186 nM

C[C@@H](NC(=O)c1cc(-c2ccc(C(F)(F)F)nc2)nn(-c2cccc(F)c2)c1=O)C(C)(C)O [Example 7, 2-(3-Fluorophenyl)-N-[(2R)-3-hydroxy-3-methylbutan-2-yl]-3-oxo-6-[6-(trifluoromethyl)pyridin-3-yl]-2,3-dihydropyridazine-4-carboxamide]
IC50 [1]: 25.8 nM
IC50 [2]: 48.1 nM

C[C@@H](CO)NC(=O)c1cc(-c2ccc(C(F)F)nc2)nn(-c2cccc(F)c2)c1=O [Example 13, 6-[6-(Difluoromethyl)pyridin-3-yl]-2-(3-fluorophenyl)-N-[(2S)-1-hydroxypropan-2-yl]-3-oxo-2,3-dihydropyridazine-4-carboxamide]
IC50 [1]: 157 nM
IC50 [2]: 198 nM

O=C(N[C@H]1CCC[C@H]1O)c1cc(-c2ccc(C(F)(F)F)nc2)nn(-c2cccc(F)c2)c1=O [Example 8, 2-(3-Fluorophenyl)-N-[(1S,2R)-2-hydroxycyclopentyl]-3-oxo-6-[6-(trifluoromethyl)pyridin-3-yl]-2,3-dihydropyridazine-4-carboxamide]
IC50 [1]: 6.28 nM
IC50 [2]: 10.3 nM

C[C@@H](CO)NC(=O)c1cc(-c2ccc(C(F)(F)F)nc2)nn(-c2ccccc2)c1=O [Example 5, N-[(2S)-1-Hydroxypropan-2-yl]-3-oxo-2-phenyl-6-[6-(trifluoromethyl)pyridin-3-yl]-2,3-dihydropyridazine-4-carboxamide]
IC50 [1]: 163 nM
IC50 [2]: 281 nM

C[C@H](NC(=O)c1cc(-c2ccc(C(F)(F)F)nc2)nn(-c2cccc(F)c2)c1=O)C(C)(C)O [Example 9, 2-(3-Fluorophenyl)-N-[(2S)-3-hydroxy-3-methylbutan-2-yl]-3-oxo-6-[6-(trifluoromethyl)pyridin-3-yl]-2,3-dihydropyridazine-4-carboxamide]
IC50 [1]: 16.2 nM
IC50 [2]: 25.3 nM

C[C@@H](CO)NC(=O)c1cc(-c2ccc(C(F)(F)F)nc2)nn(-c2cccc(F)c2)c1=O [Example 18, 2-(3-Fluorophenyl)-N-[(2S)-1-hydroxypropan-2-yl]-3-oxo-6-[6-(trifluoromethyl)pyridin-3-yl]-2,3-dihydropyridazine-4-carboxamide]
IC50 [1]: 33.8 nM
IC50 [2]: 31.4 nM

C[C@@H](CO)NC(=O)c1cc(-c2cnc(C(F)(F)F)nc2)nn(-c2cccc(F)c2)c1=O [Example 11, 2-(3-Fluorophenyl)-N-[(2S)-1-hydroxypropan-2-yl]-3-oxo-6-[2-(trifluoromethyl)pyrimidin-5-yl]-2,3-dihydropyridazine-4-carboxamide]
IC50 [1]: 495 nM
IC50 [2]: 326 nM

C[C@@H](CO)NC(=O)c1cc(-c2ccc(C(F)(F)F)nc2)nn(-c2cc(F)cc(Cl)c2)c1=O [Example 2, 2-(3-Chloro-5-fluorophenyl)-N-[(2S)-1-hydroxypropan-2-yl]-3-oxo-6-[6-(trifluoromethyl)pyridin-3-yl]-2,3-dihydropyridazine-4-carboxamide]
IC50 [1]: 23.5 nM
IC50 [2]: 36.8 nM

C[C@@H](NC(=O)c1cc(-c2ccc(N(C)C)nc2)nn(-c2cccc(F)c2)c1=O)C(C)(C)O [Example 19, 6-[6-(Dimethylamino)pyridin-3-yl]-2-(3-fluorophenyl)-N-[(2R)-3-hydroxy-3-methylbutan-2-yl]-3-oxo-2,3-dihydropyridazine-4-carboxamide]
IC50 [1]: 91.9 nM
IC50 [2]: 147 nM

O=C(N[C@H]1CCC[C@@H]1O)c1cc(-c2ccc(C(F)(F)F)nc2)nn(-c2cccc(F)c2)c1=O [Example 6, 2-(3-Fluorophenyl)-N-[(1S,2S)-2-hydroxycyclopentyl]-3-oxo-6-[6-(trifluoromethyl)pyridin-3-yl]-2,3-dihydropyridazine-4-carboxamide]
IC50 [1]: 13.4 nM
IC50 [2]: 8.32 nM

C[C@@H](CO)NC(=O)c1cc(-c2ccc(C(F)(F)F)nc2)nn(-c2cccc(Cl)c2)c1=O [Example 4, 2-(3-Chlorophenyl)-N-[(2S)-1-hydroxypropan-2-yl]-3-oxo-6-[6-(trifluoromethyl)pyridin-3-yl]-2,3-dihydropyridazine-4-carboxamide]
IC50 [1]: 128 nM
IC50 [2]: 222 nM

C[C@@H](CO)NC(=O)c1cc(-c2ccc(C(F)(F)F)nc2)nn(-c2cc(F)cc(F)c2)c1=O [Example 1, 2-(3,5-Difluorophenyl)-N-[(25)-1-hydroxypropan-2-yl]-3-oxo-6-[6-(trifluoromethyl)pyridin-3-yl]-2,3-dihydropyridazine-4-carboxamide]
IC50 [1]: 7.14 nM
IC50 [2]: 5.29 nM

O=C(N[C@@H]1CSC[C@@H]1O)c1cc(-c2ccc(C(F)(F)F)nc2)nn(-c2cccc(F)c2)c1=O [Example 26, 2-(3-Fluorophenyl)-N-[(3S,4R)-4-hydroxytetrahydrothiophen-3-yl]-3-oxo-6-[6-(trifluoromethyl)pyridin-3-yl]-2,3-dihydropyridazine-4-carboxamide]
IC50 [1]: 5740 nM

C[C@H](O)[C@H](C)NC(=O)c1cc(-c2cnc(C(F)(F)F)nc2)nn(-c2cccc(F)c2)c1=O [Example 16, 2-(3-Fluorophenyl)-N-[(2S,3S)-3-hydroxybutan-2-yl]-3-oxo-6-[2-(trifluoromethyl)pyrimidin-5-yl]-2,3-dihydropyridazine-4-carboxamide]
IC50 [1]: 169 nM

C[C@@H](CO)NC(=O)c1cc(-c2ccc(C(F)(F)F)nc2)nn(-c2ccc(F)c(F)c2)c1=O [Example 3, 2-(3,4-Difluorophenyl)-N-[(2S)-1-hydroxypropan-2-yl]-3-oxo-6-[6-(trifluoromethyl)pyridin-3-yl]-2,3-dihydropyridazine-4-carboxamide]
IC50 [1]: 623 nM

O=C(NC[C@H](O)C(F)F)c1cc(-c2cnc(C(F)(F)F)nc2)nn(-c2cccc(F)c2)c1=O [Example 15, N-[(2S)-3,3-Difluoro-2-hydroxypropyl]-2-(3-fluorophenyl)-3-oxo-6-[2-(trifluoromethyl)pyrimidin-5-yl]-2,3-dihydropyridazine-4-carboxamide]
IC50 [1]: 307 nM

From patent US11591311B2, “3-oxo-6-heteroaryl-2-phenyl-2,3-dihydropyridazine-4-carboxamides” (priority 2017, dated 2023)
